Measured values: patent publication US12187742B2 (XRAD Therapeutics, Inc., priority 2018, dated 2025)
Where a name gives a salt, the structure may show the parent alone.

molecular target: ATM (Homo sapiens (Human), UniProt Q13315); experiment: ATM in Cell Western Assay (pKAP1 in etoposide-treated MCF-7 cells); format: cell-based; details: MCF-7 cells, etoposide 100 μM, 1 hr, pKAP1 readout
Method in brief: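 Cells received compounds in a 10-dose, 3-fold series from a 1 μM final top concentration, then 100 μM etoposide, for 1 hr at 37° C. They were then fixed with paraformaldehyde and permeabilized with 0.1% Triton X-100. After immunostaining, plates were scanned on an infrared imager.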

Chain of ATM (Q13315 whole entry): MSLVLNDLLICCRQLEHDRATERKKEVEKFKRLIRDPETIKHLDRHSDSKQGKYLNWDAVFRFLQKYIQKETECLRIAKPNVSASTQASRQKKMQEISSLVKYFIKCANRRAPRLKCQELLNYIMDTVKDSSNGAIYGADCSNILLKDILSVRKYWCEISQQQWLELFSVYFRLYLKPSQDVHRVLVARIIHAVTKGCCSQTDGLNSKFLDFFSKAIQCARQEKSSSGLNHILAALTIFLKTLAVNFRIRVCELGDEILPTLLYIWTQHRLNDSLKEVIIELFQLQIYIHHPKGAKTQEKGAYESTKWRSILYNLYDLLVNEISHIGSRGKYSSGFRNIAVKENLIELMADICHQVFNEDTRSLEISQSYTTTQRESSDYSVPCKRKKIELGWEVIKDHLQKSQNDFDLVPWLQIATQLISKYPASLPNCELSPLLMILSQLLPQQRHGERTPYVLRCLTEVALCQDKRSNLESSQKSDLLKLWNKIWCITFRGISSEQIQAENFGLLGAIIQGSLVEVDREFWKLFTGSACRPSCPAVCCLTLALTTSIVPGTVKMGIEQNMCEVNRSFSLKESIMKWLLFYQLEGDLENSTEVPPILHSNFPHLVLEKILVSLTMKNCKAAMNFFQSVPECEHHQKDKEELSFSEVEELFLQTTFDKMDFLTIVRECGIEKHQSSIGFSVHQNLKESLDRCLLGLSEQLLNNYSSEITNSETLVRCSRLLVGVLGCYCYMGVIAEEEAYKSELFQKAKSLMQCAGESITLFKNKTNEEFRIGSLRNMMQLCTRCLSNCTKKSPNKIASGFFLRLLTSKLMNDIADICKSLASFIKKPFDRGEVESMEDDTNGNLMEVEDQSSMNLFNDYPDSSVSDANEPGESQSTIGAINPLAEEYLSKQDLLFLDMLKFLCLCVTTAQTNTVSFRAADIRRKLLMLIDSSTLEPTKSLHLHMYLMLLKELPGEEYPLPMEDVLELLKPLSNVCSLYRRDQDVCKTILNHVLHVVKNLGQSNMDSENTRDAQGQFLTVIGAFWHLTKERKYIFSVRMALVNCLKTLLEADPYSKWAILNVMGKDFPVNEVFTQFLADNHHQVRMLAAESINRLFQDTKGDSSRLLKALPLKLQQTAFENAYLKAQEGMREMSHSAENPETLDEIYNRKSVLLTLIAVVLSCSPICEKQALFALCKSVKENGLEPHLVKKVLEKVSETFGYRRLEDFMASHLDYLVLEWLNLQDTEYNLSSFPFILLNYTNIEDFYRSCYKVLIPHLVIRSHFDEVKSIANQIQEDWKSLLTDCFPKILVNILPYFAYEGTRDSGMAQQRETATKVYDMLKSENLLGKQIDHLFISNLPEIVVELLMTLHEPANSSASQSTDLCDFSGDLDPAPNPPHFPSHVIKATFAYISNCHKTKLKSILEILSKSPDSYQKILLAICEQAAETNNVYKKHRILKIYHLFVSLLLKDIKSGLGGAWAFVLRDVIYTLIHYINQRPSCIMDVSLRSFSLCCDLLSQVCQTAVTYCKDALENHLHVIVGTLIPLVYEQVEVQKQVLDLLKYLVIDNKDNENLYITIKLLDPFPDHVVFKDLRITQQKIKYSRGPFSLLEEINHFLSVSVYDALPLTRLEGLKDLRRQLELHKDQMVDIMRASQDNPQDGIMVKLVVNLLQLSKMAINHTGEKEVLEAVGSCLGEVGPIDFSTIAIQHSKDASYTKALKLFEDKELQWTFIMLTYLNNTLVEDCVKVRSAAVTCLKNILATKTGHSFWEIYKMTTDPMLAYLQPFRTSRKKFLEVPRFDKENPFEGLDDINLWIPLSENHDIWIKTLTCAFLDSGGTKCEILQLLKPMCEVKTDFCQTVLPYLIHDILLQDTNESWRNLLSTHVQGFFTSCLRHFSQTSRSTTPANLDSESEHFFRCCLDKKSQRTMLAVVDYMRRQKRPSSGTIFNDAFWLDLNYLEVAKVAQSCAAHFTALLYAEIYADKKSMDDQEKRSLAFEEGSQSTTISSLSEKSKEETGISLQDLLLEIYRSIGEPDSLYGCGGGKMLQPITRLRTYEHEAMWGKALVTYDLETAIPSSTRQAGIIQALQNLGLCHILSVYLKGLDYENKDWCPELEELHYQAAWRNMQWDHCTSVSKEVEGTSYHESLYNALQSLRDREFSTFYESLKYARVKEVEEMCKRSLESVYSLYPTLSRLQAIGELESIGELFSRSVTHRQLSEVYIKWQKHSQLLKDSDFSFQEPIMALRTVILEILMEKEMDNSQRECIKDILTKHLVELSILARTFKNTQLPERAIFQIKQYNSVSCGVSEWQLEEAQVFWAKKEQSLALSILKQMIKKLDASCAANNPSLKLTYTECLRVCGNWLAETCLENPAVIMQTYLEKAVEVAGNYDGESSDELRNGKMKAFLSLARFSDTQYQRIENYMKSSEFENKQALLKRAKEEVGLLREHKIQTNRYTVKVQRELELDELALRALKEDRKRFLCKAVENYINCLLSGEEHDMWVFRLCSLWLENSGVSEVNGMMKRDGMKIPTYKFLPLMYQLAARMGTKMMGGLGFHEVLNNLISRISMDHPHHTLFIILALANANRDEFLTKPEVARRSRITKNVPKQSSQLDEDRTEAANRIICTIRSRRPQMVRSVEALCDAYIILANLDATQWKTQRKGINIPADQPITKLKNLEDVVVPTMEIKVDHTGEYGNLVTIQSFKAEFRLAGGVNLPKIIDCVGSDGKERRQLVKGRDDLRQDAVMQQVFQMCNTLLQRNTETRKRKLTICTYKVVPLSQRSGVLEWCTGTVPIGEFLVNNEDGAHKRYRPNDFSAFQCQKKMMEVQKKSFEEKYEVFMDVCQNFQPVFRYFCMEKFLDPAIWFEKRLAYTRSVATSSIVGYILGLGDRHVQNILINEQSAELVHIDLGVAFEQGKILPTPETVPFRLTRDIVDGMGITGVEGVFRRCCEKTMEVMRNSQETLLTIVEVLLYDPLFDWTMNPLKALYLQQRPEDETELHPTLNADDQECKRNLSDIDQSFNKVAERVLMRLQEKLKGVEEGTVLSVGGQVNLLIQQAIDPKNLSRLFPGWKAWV

Row | IC50 [nM] | Compound
1 | > 100 | CN(C)CCCOc1ncc(-c2ccc3ncc4c(c3c2)C2(CC2)C(=O)N4C)cc1Cl [Example 55, 8′-(5-Chloro-6-(3-(dimethylamino)propoxy)pyridin-3-yl)-3 methylspiro[cyclopropane-1,1′-pyrrolo[2,3-c]quinolin]-2′(3′-H)-one]
2 | 1 to 100 | Cc1ccc(S(=O)(=O)Nc2cc(-c3ccc4ncc5c(c4c3)C3(CCC3)C(=O)N5C)cnc2OCCCN2CCC(F)(F)CC2)cc1 [Example 152, hydrochloride]
3 | > 100 | CN1C(=O)C2(CCC2)c2c1c(N)nc1ccc(-c3cnc(N4CC(N(C)C)C4)c(NS(C)(=O)=O)c3)cc21 [Example 327, N-(5-(4′-Amino-3′-methyl-2′-oxo-2′,3′-dihydrospiro[cyclobutane-1,1′-pyrrolo[2,3-c]quinolin]-8′-yl)-2-(3-(dimethylamino)azetidin-1-yl)pyridin-3-yl)methanesulfonamide hydrochloride]
4 | > 100 | CN(C)CCCOc1ncc(-c2ccc3ncc4c(c3c2)N(C)C2(CC2)C(=O)N4)cc1NS(=O)(=O)c1ccccc1 [Example 87, N-(2-(3-(Dimethylamino)propoxy)-5-(1′-methyl-3′-oxo-3′-,4′-dihydro-1′H-spiro[cyclopropane-1,2′-pyrazino[2,3-c]quinolin]-9′-yl)pyridin-3-yl) benzenesulfonamide]
5 | 1 to 100 | CN(C)CC1CN(c2ncc(-c3ccc4ncc5c(c4c3)C3(CC3)C(=O)N5C)cc2NS(=O)(=O)C2CC2)C1 [Example 122, N-(2-(3-((Dimethylamino)methyl)azetidin-1-yl)-5-(3′-methyl-2′-oxo-2′,3′-dihydrospiro[cyclopropane-1,1′-pyrrolo[2,3-c]quinolin]-8′-yl)pyridin-3-yl)cyclopropanesulfonamide]
6 | > 100 | COc1ncc(-c2ccc3ncc4c(c3c2)C2(CC2)C(=O)N4Cc2cn[nH]c2)cc1NS(=O)(=O)c1ccccc1 [Example 11, N-(5-(3′-((1H-Pyrazol-4-yl)methyl)-2′-oxo-2′,3′-dihydrospiro[cyclopropane-1,1′-pyrrolo[2,3-c]quinolin]-8′-yl)-2-methoxypyridin-3-yl) benzenesulfonamide]

The next lines start with the compound.

Row | Compound | IC50 [nM]
7 | CN(C)CCCOc1ncc(-c2ccc3ncc4c(c3c2)C2(CCC2)C(=O)N4C)cc1NS(=O)(=O)N(C)C1CCNCC1 [Example 179, N-Methyl-N-(piperidin-4-yl)({2-[3-(dimethylamino)propoxy]-5-{3′-methyl-2′-oxo-2′,3′-dihydrospiro[cyclobutane-1,1′-pyrrolo[2,3-c]quinoline]-8-yl}pyridin-3-yl}amino)sulfonamide 2,2,2-trifluoroacetate] | 1 to 100
8 | CN1CC(COc2ncc(-c3ccc4ncc5c(c4c3)C3(CC3)C(=O)N5C)cc2NS(=O)(=O)c2ccccc2)C1 [Example 110, N-(5-(3′-Methyl-2′-oxo-2′,3′-dihydrospiro[cyclopropane-1,1′-pyrrolo[2,3-c]quinolin]-8′-yl)-2-((1-methylazetidin-3-yl)methoxy)pyridin-3-yl)benzenesulfonamide] | > 100
9 | CC1CCN(c2ncc(-c3ccc4ncc5c(c4c3)C3(CCC3)C(=O)N5C)cc2NS(C)(=O)=O)CC1 [Example 260, N-(5-(3′-Methyl-2′-oxo-2′,3′-dihydrospiro[cyclobutane-1,1′-pyrrolo[2,3-c]quinolin]-8′-yl)-2-(4-methylpiperidin-l-yl)Pyridin-3-yl)methanesulfonamide] | > 100
10 | CC(C)N1C(=O)C2(CC2)c2c1cnc1ccc(-c3cnc(OCCCN(C)C)c(NS(=O)(=O)c4ccccc4)c3)cc21 [Example 31, N-(2-(3-(Dimethylamino)propoxy)-5-(3′-isopropyl-2′-oxo-2′,3′-dihydrospiro [cyclopropane-1,1′-pyrrolo[2,3-c]quinolin]-8′-yl)pyridin-3-yl) benzenesulfonamide] | > 100
11 | CC(C)Nc1cc(-c2ccc3ncc4c(c3c2)C2(CC2)C(=O)N4C)cnc1OCCCN(C)C [Example 34, 8′-(6-(3-(Dimethylamino)propoxy)-5-(isopropylamino)pyridin-3-yl)-3′-methylspiro[cyclopropane-1,1′-pyrrolo[2,3-c]quinolin]-2′(3′-H)-one] | > 100
12 | Cc1ccc(S(=O)(=O)Nc2cc(-c3ccc4ncc5c(c4c3)C3(CCC3)C(=O)N5C)cnc2OCCCN2C(C)CCCC2C)cn1 (stereo not shown) [Example 210, N-(2-(3-(2,6-Dimethylpiperidin-1-yl)propoxy)-5-(3′-methyl-2′-oxo-2′,3′-dihydrospiro[cyclobutane-1,1′-pyrrolo[2,3-c]quinolin]-8′-yl)pyridin-3-yl)-6-methylpyridine-3-sulfonamide] | 1 to 100
13 | CC(=O)Nc1ccc(S(=O)(=O)Nc2cc(-c3ccc4ncc5c(c4c3)C3(CC3)C(=O)N5C)cnc2OCCCN(C)C)cc1 [Example 101, N-(4-(N-(2-(3-(Dimethylamino)propoxy)-5-(3′-methyl-2′-oxo-2′,3′-dihydrospiro [cyclopropane-1,1′-pyrrolo[2,3-c]quinolin]-8′-yl)pyridin-3-yl)sulfamoyl)phenyl) acetamide] | 1 to 100

same assay, conditions: pKAP1 in etoposide-treated MCF-7 cells

Row | IC50 [nM] | Compound
14 | 1 to 100 | CC(C)NCCOc1ncc(-c2cc3c4c(cnc3cc2F)N(C)C(=O)C42CN(CC(F)F)C2)cc1NS(C)(=O)=O [Example 508, N-(5-(1-(2,2-Difluoroethyl)-7′-fluoro-3′-methyl-2′-oxo-2′,3′-dihydrospiro[azetidine-3,1′-pyrrolo[2,3-c]quinolin]-8′-yl)-2-(2-(isopropylamino)ethoxy)pyridin-3-yl)methanesulfonamide]
15 | 1 to 100 | CC(C)NCCOc1ncc(-c2cc3c4c(cnc3cc2F)N(C)C(=O)C42CN(c3ccc(C(C)(C)C)cc3)C2)cc1NS(C)(=O)=O [Example 531, N-(5-(1-(4-(ter-Butyl)phenyl)-7′-fluoro-3′-methyl-2′-oxo-2′,3′-dihydrospiro[azetidine-3,1′-pyrrolo[2,3-c]quinolin]-8′-yl)-2-(2-(isopropylamino)ethoxy)pyridin-3-yl)methanesulfonamide]
16 | 1 to 100 | Cc1cc(S(=O)(=O)Nc2cc(-c3cc4c5c(cnc4cc3F)N(C)C(=O)C53CN(c4ccccc4)C3)cnc2OCCNC(C)C)sn1 [Example 521]
17 | > 100 | CN1C(=O)C2(CCC2)c2c1cnc1cc(F)c(-c3cnc(OCCNC4CCC4)c(NS(C)(=O)=O)c3)cc21 [Example 377, N-(2-(2-(Cyclobutylamino)ethoxy)-5-(7′-fluoro-3′-methyl-2′-oxo-2′,3′-dihydrospiro[cyclobutane-1,1′-pyrrolo[2,3-c]quinolin]-8′-yl)pyridin-3-yl)methanesulfonamide]
18 | 1 to 100 | CN1CC2(C1)CN(c1ncc(-c3ccc4ncc5c(c4c3)C3(CCC3)C(=O)N5C)cc1NS(C)(=O)=O)C2 [Example 345, N-(5-(3′-Methyl-2′-oxo-2′,3′-dihydrospiro[cyclobutane-1,1′-pyrrolo[2,3-c]quinolin]-8′-yl)-2-(6-methyl-2,6-diazaspiro[3.3]heptan-2-yl)pyridin-3-yl)methanesulfonamide formate]
19 | > 100 | CN1C(=O)C2(CCC2)c2c1cnc1ccc(-c3cnc(N4CC5CC(C4)N5C)c(NS(C)(=O)=O)c3)cc21 [Example 361, N-(5-(3′-Methyl-2′-oxo-2′,3′-dihydrospiro[cyclobutane-1,1′-pyrrolo[2,3-c]quinolin]-8′-yl)-2-(6-methyl-3,6-diazabicyclo[3.1.1]heptan-3-yl)pyridin-3-yl)methanesulfonamide formate]
20 | > 100 | CC(C)NCCOc1ncc(-c2cc3c(cc2F)ncc2c3[C@]3(C[C@H](n4cccn4)C3)C(=O)N2C)cc1NS(C)(=O)=O [Example 476, cis-N-(5-(7′-Fluoro-3′-methyl-2′-oxo-3-(1H-pyrazol-1-yl)-2′,3′-dihydrospiro[cyclobutane-1,1′-pyrrolo[2,3-c]quinolin]-8′-yl)-2-(2-(isopropylamino)ethoxy)pyridin-3-yl)methanesulfonamide]

Second part, the compound before the results:

Row | Compound | IC50 [nM]
21 | CN1C(=O)C2(CCC2)c2c1cnc1cc(F)c(-c3cnc(OCCNC4CC4)c(NS(C)(=O)=O)c3)cc21 [Example 376, N-(2-(2-(Cyclopropylamino)ethoxy)-5-(7′-fluoro-3′-methyl-2′-oxo-2′,3′-dihydrospiro[cyclobutane-1,1′-pyrrolo[2,3-c]quinolin]-8′-yl)pyridin-3-yl)methanesulfonamide hydrochloride] | 1 to 100
22 | COCCN1CC2(C1)C(=O)N(C)c1cnc3cc(F)c(-c4cnc(OCCNC(C)C)c(NS(C)(=O)=O)c4)cc3c12 [Example 507, N-(5-(7′-Fluoro-1-(2-methoxyethyl)-3 methyl-2′-oxo-2′,3′-dihydrospiro[azetidine-3,1′-pyrrolo[2,3-c]quinolin]-8′-yl)-2-(2-(isopropylamino)ethoxy)pyridin-3-yl)methanesulfonamide] | 1 to 100
23 | CCN1CC2(C1)C(=O)N(C)c1cnc3cc(F)c(-c4cnc(OCCNC(C)C)c(NS(C)(=O)=O)c4)cc3c12 [Example 482, N-(5-(1-Ethyl-7-fluoro-3′-methyl-2′-oxo-2′,3′-dihydrospiro[azetidine-3,1′-pyrrolo[2,3-c]quinolin]-8′-yl)-2-(2-(isopropylamino)ethoxy)pyridin-3-yl)methanesulfonamide] | 1 to 100
24 | CN1C(=O)C2(CCC2)c2c1cnc1ccc(-c3cnc(N4CCC(C)(N5CCCCC5)C4)c(NS(C)(=O)=O)c3)cc21 (racemic) [Example 353, (rac)-N-(5-(3′-Methyl-2′-oxo-2′,3′-dihydrospiro[cyclobutane-1,1′-pyrrolo[2,3-c]quinolin]-8′-yl)-2-(3-methyl-3-(piperidin-1-yl)pyrrolidin-1-yl)pyridin-3-yl)methanesulfonamide hydrochloride] | > 100
25 | CC(C)NCCOc1ncc(-c2cc3c(cc2F)ncc2c3[C@]3(C[C@@H](Cc4ccccc4)C3)C(=O)N2C)cc1NS(C)(=O)=O [Example 450, trans-N-(5-(3-Benzyl-7-fluoro-3′-methyl-2′-oxo-2′,3′-dihydrospiro [cyclobutane-1,1′-pyrrolo[2,3-c]quinolin]-8′-yl)-2-(2-(isopropylamino)ethoxy)pyridin-3-yl)methanesulfonamide] | 1 to 100
